Experimental data from US20060234944A1, “Beta-secretase inhibitors and methods of use” (Oklahoma Medical Reseach Foundation, priority 2001, published 2006).
*1 amine or outer side, *2 acyl side, *3 side chain or, on linkers, in order; H or OH if unused. Where a SMILES comes first, the peptide text is derived from it. [ ]: non-standard residue; d: D form. The star is where a group is joined. LeuΨ(S-CHOHCH2)Ala = CC(C)C[C@H](N[*:1])[C@@H](O)C[C@@H](C)C(=O)[*:2]; 5FAM = O=C1OC2(c3ccc(O)cc3Oc3cc(O)ccc32)c2ccc(C(=O)*)cc21; Ahx = NCCCCCC(=O)O

Legend:
memapsin 1 = target: T1, memapsin 1 (Homo sapiens, UniProt Q9Y5Z0); experiment: Inhibition of memapsin 1 cleavage of fluorogenic substrate FS-2 (Ki apparent, % inhibition); assay type: biochemical; details: Table 9; read-out: Ki apparent (nM) Mep1
T1 construct: made in house; host or cells: E. coli
T1 sequence (Q9Y5Z0 63-466): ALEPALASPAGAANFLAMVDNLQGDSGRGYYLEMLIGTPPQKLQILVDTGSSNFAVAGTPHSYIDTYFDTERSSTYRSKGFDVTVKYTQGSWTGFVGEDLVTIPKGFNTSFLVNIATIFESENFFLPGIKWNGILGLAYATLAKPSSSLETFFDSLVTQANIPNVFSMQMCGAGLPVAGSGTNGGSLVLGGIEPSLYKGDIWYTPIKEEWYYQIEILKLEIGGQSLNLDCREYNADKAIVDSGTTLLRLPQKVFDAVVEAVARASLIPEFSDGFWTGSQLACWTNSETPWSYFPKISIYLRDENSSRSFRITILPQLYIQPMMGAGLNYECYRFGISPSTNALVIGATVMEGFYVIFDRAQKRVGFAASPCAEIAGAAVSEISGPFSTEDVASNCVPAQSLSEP
Protocol: Vi/Vo depicts the ratio of initial cleavage velocities of the substrate FS-2 (Ermolieff, et al., Biochemistry […]:12450-12456 (2000)) by memapsin 1 or memapsin 2 in the absence (Vo) or presence (Vi) of a compound of the invention. […] The Vi/Vo values depicted in Table 1 were determined at conditions under which the enzyme and inhibitor concentrations were equal (e.g., about 80 nM, 100 nM).
The relationship of Ki (independent of substrate concentration) to Kiapp is a function of substrate concentration in the assay and the Km for cleavage of the substrate by either memapsin 1 or memapsin 2 by the relationship: Kiapp=Ki(1+[S]/Km).
An aliquot of the inhibitor of known concentration in DMSO was diluted into 1.8 ml 0.1 M NaOAc, pH 4.0. DMSO and added to a final concentration of 10% (v/v), and memapsin 2 (final concentration of 80 nM), followed by a 20 minute equilibration at 37° C. Compounds were evaluated for the ability to inhibit memapsin 1 and memapsin 2 at concentrations between about 10 nM and about 10 μm of inhibitor.
The relationship of Ki (independent of substrate concentration) to Kiapp is a function of substrate concentration in the assay and the Km for cleavage of the substrate by either memapsin 1 or memapsin 2 by the relationship: Kiapp=Ki (1+[S]/Km).

plasma Aβ40 [1] = experiment: Inhibition of Aβ production in tg2576 transgenic mice (plasma Aβ40 ELISA); assay type: in vivo; details: i.p. injection (FIG. 21C)
Protocol: Six-month-old tg2576 mice (n=21) were injected intraperitoneally (i.p.) 200 μg of conjugate CPI-3 or with control DMSO, in 200 μl of PBS. Plasma were collected from anesthetized animals by orbital bleed or sephaneous vein into heparinized capillary tubes and clarified by centrifugation. Plasma A≢ 1-40 levels were determined by capture ELISA (BioSource International, Camarillo, Calif.). The peptide analogue of CPI-3, with an amide group instead of the hydroxyethylene isostere was synthesized by SynPep (Camarillo, Calif.).
Since the conjugate inhibitors can cross the blood brain barrier in vivo, enter cells both in vitro and in vivo, and inhibit Aβ production in vitro, inhibition of Aβ production in vivo was determined. Tg2576 mice, expressing the Swedish mutation of the human amyloid precursor protein (including SEQ ID NO: 11) (Hsiao, K., et al., Science 274:99-102 (1996), the teachings of which are incorporated hereby in their entirety) were injected with CPI-3, which is identical in amino acid sequence to CPI-2 and lacks the amino-terminal fluorescein (FAM) derivative. Blood was collected from tg2576 animals at time intervals following injection of 400 μg of CPI-3.

plasma Aβ40 [2] = experiment: Inhibition of Aβ production in APP/F transgenic mouse model of Alzheimer's disease (plasma Aβ40 sandwich ELISA); assay type: in vivo, mice; details: control inhibitor, 163 nmoles i.p., 2 hours following injection
Protocol: Compounds MMI-138, MMI-165, and MMI-185 were synthesized as described above. Compounds were dissolved in 1 ml of dimethyl sulfoxide (DMSO) to a final concentration of about 1 mg/ml for MMI-165 and MMI-185, and about 10 mg/ml for MMI-138. […] Inhibitors were diluted into PBS or H2O immediately prior to injection, as described below. Inhibition constants were determined by methods described by Ermolieff, et al (Biochem. 39:12450-12456 (2000), the teachings of which are incorporated hereby in their entirety).
The tg2576 strain of mice was obtained from Taconic (Germantown, N.Y.). The APP/F strain of mice were obtained by mating the tg2576 mice with the FVB/N strain. To determine presence of the Swedish APP gene in APP/F mice, the DNA from mice was isolated according to the Qiagen Dneasy™ Tissue Kit. PCR (Qiagen kit and protocol) was used to amplify the fragment of DNA corresponding to the human Swedish APP gene. The following primers were used: […]
At the age of three months, animals of the Alzheimer's disease mouse model APP/F were injected intraperitoneally (i.p.) with about 163 nanomoles of either compounds MMI-138 (molecular weight 674 g/mole; 110 μg per animal, n=2), MMI-165 (molecular weight 626 g/mole; 102 μg per animal, n—2), or MMI-185 (molecular weight 686; 112 μg per animal, n—2).
Heparinized capillary tubes collected blood samples from anesthetized animals from either the retro-orbital sinus or from the saphenous vein at specified intervals following injection. The blood samples were transferred to sterile 1.5 mL microcentrifuge tubes, centrifuged at 5,100 RPM for 10 minutes to recover the plasma (supernatant), and stored at −70° C. until analysis for the Aβ40 by Enzyme Linked-Immuno-Sorbent Assay (ELISA).
A sandwich ELISA (BioSource International, Camarillo, Calif.) was used to determine the levels of Aβ40 in plasma samples. The ELISA utilizes a primary antibody specific for human Aβ for the immobilization of the amino-terminus and a detection antibody specific for the carboxy-terminal amino acids of Aβ40. A conjugated secondary antibody was used to detect the ternary complex, using a stabilized chromogen substrate, quantifiable following addition of 1 M HCl, with the optical densities measured at 450 nm. The procedures were followed according to the BioSource protocol. Optical densities were converted to pg/ml quantities of Aβ40 using a linear regression of the optical densities of standards obtained from the commercial kit, to their known concentrations.

plasma Aβ40 [3] = experiment: as above; assay type: in vivo, mice; details: unconjugated inhibitor, MW 935 g/mole
HEK293 cells = experiment: Entry of fluorescently labelled inhibitors into cultured cells (flow cytometry); assay type: cell-based, human; details: 10 to 30 minutes incubation
Protocol: Fluorescently labelled inhibitors or fluorescein (Fs) as a control were incubated with suspended cells for time intervals ranging from 10 to 30 minutes. Cells were fixed with paraformaldehyde and permeabilized in 0.2% Tween-20 in PBS for 6 minutes and incubated with anti-fluorescein-Alexa™ 488 antibody (Molecular Probes, Eugene, Oreg.) in order to enhance detection of intracellular inhibitor present from penetration. Flow cytometry (FACSCalibur™) and confocal fluorescent microscopy (Leica TCS NT™) were performed at the Flow and Image Cytometry Lab, OUHSC.

[4] = Transport of conjugated inhibitors into mouse blood cells, splenocytes and brain after i.p. injection
Protocol: Whole blood cells (with EDTA as anti-coagulant in the syringe or in the capillary tube) were isolated from anesthetized animals from the orbital artery or by heart puncture and diluted 1:10 in PBS. Prior to the harvest of other tissue samples, animals were anesthetized and perfused with 150 ml of neutral-buffered 10% formalin. Spleens were harvested intact. Brains were harvested and cerebral hemispheres separated, one for sectioning by cryostat, the other for single cell isolation for flow cytometry.
Sections of the brain hemispheres were obtained by soaking in OCT/PBS at 4° C. for overnight, recovered and frozen in Histo Prep Media.
To collect single cell suspensions, spleens and brain hemispheres were homogenized through a 30 μm screen and directly analyzed by flow cytometric analysis.

[5] = Martin et al., Aids 13:1227-32 (1999); cited from earlier work

## CC(C)C[C@H](NC(=O)[C@@H](N)CCC(=O)O)C(=O)N[C@@H](CC(=O)O)C(=O)N[C@@H](CC(C)C)[C@@H](O)C[C@@H](C)C(=O)N[C@H](C(=O)N[C@@H](CCC(=O)O)C(=O)N[C@@H](Cc1ccccc1)C(=O)O)C(C)C [OM00-3, ELDL*AVEF] (H-ELD[LeuΨ(S-CHOHCH2)Ala]VEF-OH; N-terminus assumed)
Memapsin 1
  Ki: 0.18 nM
Plasma Aβ40 [1]
  Effect on plasma Aβ40 levels: did not reduce plasma Aβ40 levels
Plasma Aβ40 [2]
  Decrease of plasma Aβ40: 16%
Plasma Aβ40 [3]
  Inhibition of Aβ40 production in vivo: failed to inhibit Aβ40 production

## CC(C)C[C@H](NC(=O)[C@H](CC(N)=O)NC(=O)[C@@H](NC(=O)[C@H](CCC(=O)O)NC(=O)CCCCCNC(=O)c1ccc2c(c1)C(=O)OC21c2ccc(O)cc2Oc2cc(O)ccc21)C(C)C)[C@@H](O)C[C@@H](C)C(=O)N[C@@H](C)C(=O)N[C@@H](CCC(=O)O)C(=O)N[C@@H](Cc1ccccc1)C(=O)NCC(=O)N[C@@H](Cc1ccc(O)cc1)C(=O)NCC(=O)N[C@@H](CCCNC(=N)N)C(=O)N[C@@H](CCCCN)C(=O)N[C@@H](CCCCN)C(=O)N[C@@H](CCCNC(=N)N)C(=O)N[C@@H](CCCNC(=N)N)C(=O)N[C@@H](CCC(N)=O)C(=O)N[C@@H](CCCNC(=N)N)C(=O)N[C@@H](CCCNC(=N)N)C(=O)N[C@@H](CCCNC(=N)N)C(=O)O [CPI-1] ({5FAM-Ahx}-EVN[LeuΨ(S-CHOHCH2)Ala]AEFGYGRKKRRQRRR-OH)
HEK293 cells
  Penetration of cultured cells (intracellular fluorescence): readily penetrated cultured cells within minutes
[4]; 8 hours after i.p. injection, flow cytometry or confocal microscopy of brain sections
  Uptake into brain (fluorescence): penetration of the fluorescent conjugate into all brain cells
[4]; whole blood 20 minutes after i.p. injection of 0.3 nmol
  Blood cells with strong fluorescence signal: approximately 100%

## CC(C)(C)NC(=O)[C@@H]1CN(Cc2cccnc2)CCN1C[C@@H](O)C[C@@H](Cc1ccccc1)C(=O)N[C@H]1c2ccccc2C[C@H]1O [indinavir]
[5]
  Crossing of the blood-brain barrier: can cross the blood-brain barrier
